Laboratory results published in patent US8697692B2, “Pyrrolo [3,2-c] pyridine-4-one 2-indolinone protein kinase inhibitors” (Shanghai Hengrui Pharmaceutical Co., Ltd., priority 2006, dated 2014).

What was measured:
[1] = test system: HUVEC cell; experiment: Cell Proliferation Inhibition VEGF-R2 Assay (SRB method); format: cell-based, homo sapient; settings: Homo sapiens; HUVEC cells, 72 hours exposure, Sulforhodamine B; read-out: IC50 (VEGFR/HUVEC)
Description: The following in vitro assay may be used to determine the level of activity and effect of different compounds of the present invention on the proliferation inhibition (cell toxic) of endothelium growth factor receptor (VEGFR) high expressing homo […] cancer cell-HUVEC cell. The cellular assay described here measure the compounds of their anti-angiogenesis and proliferation inhibition activity and effect through […] on the cancer cells in vitro. The effect and activity is represented by the IC50 value that kills the cancer cell. […] The homo […] highly express […] are chosen and seeded to 96-well cell culture plate at a suitable concentration (exp 5000 cells/ml medium). The cells then are cultured in carbon dioxide (CO2) incubator till when they confluence to about 85%. Then, the cell culture medium is replaced by fresh one with tested compounds added in it at serial concentrations (general 6 to 7 concentrations). Then the cells are put back to the culture and cultured for continuous 72 hours. 72 hours later, the cell exposed to compounds and control cell are assayed for their proliferation using Sulforhodamine B (SRB) method. […] Dimethyl sulfoxide (Sinophma chemical reagent company, catalog No. T20050806) • b. HUVEC cells (Purchased from Institute of biochemistry and cell biology) • c. […] Acetic Acid (Sinophma chemical reagent company, Catalog No. T20060508) • l. Trichloroacetic Acid (Sinophma chemical reagent company, Catalog No. T20060305) • m. […] Class II A/B3 Biological safety cabinet (ThermoForma Catalog No. HB0053-03) • o. […] Centrifuge (Fisher Scientific Marathon 8 k, Catalog No. 0027-02) • q. Novastar Plate reader (BMG Labtech, Catalog No. 700-0081) • r. […] Growing seeded 96-well plates at 37° C., 5% CO2, till 85% confluence. • 4. Prepare compounds stock solution, using DMSO solve candidate compounds to a concentration of 20 mM. […] Use cell culture medium (in this case, DMEM/F12+10% FBS) to dilute the compounds solution prepared above. Each DMSO serial concentration compound solution is diluted by 20 times with culture medium by adding 5 μl DMSO compound solution to 95 μl culture medium, then mix well by vortex. […] After HUVEC cell has attached to the dish bottom and confluence about 85%, change the culture medium with fresh DMEM/F12 plus 10% FBS. Each well added 180 μl medium, then add 20 μl medium solution of tested compounds prepared at step 5 to each well. For control group cell, add 20 μl culture medium containing 0.5% pure DMSO. […] Each 96-well plate, we can test 3 compounds with a control cell group. • 7. Put the culture plates back to incubator, culture for 72 hours at 37° C., 5% CO2. • 8. 72 hours later, remove cultures from incubator into sterile work area. • 9. Prepare fixative (50% Trichloroacetic Acid-TCA) by adding reagent grade water to the TCA, fix the cells by gently layering 50 μl of cold TCA solution on top of the growth medium. • 10. Incubate plates for 1 hour at 4° C. and then rinse with water several times to remove TCA, serum proteins, etc. Plates are air dried and stored until use. Bland background optical density is measured in wells incubated with growth medium without cells. • 11. Use 10% acetic acid solution to prepare 0.4% Sulforhodamine B solution. Add 50 μl sulforhodamine B solution to each well of 96-well plates. • 12. Allow cells to stain for 30 minutes. • 13. Prepared the wash solution of […] acetic acid. At the end of the staining period, the stain is removed and the cells rinsed quickly with 1% acetic acid. Repeat until unincorporated dye is removed. Keep wash times to a minimum to reduce desorption of protein-bound dye. After being rinsed, the cultures are air dried until no moisture is visible. • 14. The incorporated dye is then solubilized in a volume of Sulforhodamine B assay Solubilization solution (10 mM Tris) equal to the original volume of culture medium. Allow cultures to stand for 5 minutes at room temperature.

[2] = test system: A431 cell; experiment: Cell Proliferation Inhibition EGFR Assay (SRB method); format: cell-based, homo sapient; settings: Homo sapiens, A-431; A431 cells, 72 hours exposure, Sulforhodamine B; read-out: IC50 (A431)
Description: The following in vitro assay may be used to determine the level of activity and effect of different compounds of the present invention on the proliferation inhibition (cell toxic) of […] growth factor receptor (EGFR) high expressing homo […] cancer cell-A431 cell. The cellular assay described here measure the compounds of their anti-angiogenesis and proliferation inhibition activity and effect through EGFR on the cancer cells in vitro. The effect and activity is represented by the IC50 value that kills the cancer cell. […] The homo […] highly express EGFR are chosen and seeded to 96-well cell culture plate at a suitable concentration (exp 5000 cells/ml medium). The cells then are cultured in carbon dioxide (CO2) incubator till when they confluence to about 85%. Then, the cell culture medium is replaced by fresh one with tested compounds added in it at serial concentrations (general 6 to 7 concentrations). Then the cells are put back to the culture and cultured for continuous 72 hours. 72 hours later, the cell exposed to compounds and control cell are assayed for their proliferation using Sulforhodamine B (SRB) method. Compounds IC50 on tested cells are calculated by the data of inhibition rates of serial concentrations of the tested compounds. • a. Dimethyl sulfoxide (Sinophma chemical reagent company, catalog No. T20050806) • b. A431 cells (Purchased from Institute of biochemistry and cell biology) • c. Falcon 100 mm cell culture plates (Baton Dickison Labware, Baton Dickison and company, • Catalog No. 18677) • d. coming 96-well culture cluster (Corning Incorporated, Catalog No. 3599) • e. Fisher Pipette (Fisher scientific, Catalog No. 03-692-164) • f. DMEM/F12 cell medium (Gibco, Catalog No. 12400-024) • g. Fetal bovine serum, origin from Australia (Gibco, Catalog No. 10099-141) • h. […] Sulforhodamine B (Sigma, Catalog No. 3520-42-1) • k. Acetic Acid (Sinophma chemical reagent company, Catalog No. T20060508) • l. Trichloroacetic Acid (Sinophma chemical reagent company, Catalog No. T20060305) • m. Tris base (Amresco, Catalog No. 0826) • n. Class II A/B3 Biological safety cabinet (ThermoForma Catalog No. HB0053 03) • o. Series II water jacketed CO2 incubator (ThermoForma Model: 3111) • p. Centrifuge (Fisher Scientific Marathon 8 k, Catalog No. 0027-02) • q. Novastar Plate reader (BMG Labtech, Catalog No. 700 0081) • r. Orbital Shaker (Qilinbeier, Catalog No. TS-1) Protocol: […] Growing seeded 96-well plates at 37° C., 5% CO2, till 85% confluence. • 4. Prepare compounds stock solution, using DMSO solve candidate compounds to a concentration of 20 mM. […] Use cell culture medium (in this case, DMEM/F12+10% FBS) to dilute the compounds solution prepared above. Each DMSO serial concentration compound solution is diluted by 20 times with culture medium by adding 5 μl DMSO compound solution to 95 μl culture medium, then mix well by vortex. This promise that the DMSO concentration at that the A431 cell will exposed to will not surpass 0.5%. • 6. […] Each well added 180 μl medium, then add 20 μl medium solution of tested compounds prepared at step 5 to each well. For control group cell, add 20 μl culture medium containing 0.5% pure DMSO. […] Each 96-well plate, we can test 3 compounds with a control cell group. • 7. Put the culture plates back to incubator, culture for 72 hours at 37° C., 5% CO2. • 8. 72 hours later, remove cultures from incubator into sterile work area. • 9. Prepare fixative (50% Trichloroacetic Acid-TCA) by adding reagent grade water to the TCA, fix the cells by gently layering […] of cold TCA solution on top of the growth medium. • 10. Incubate plates for 1 hour at 4° C. and then rinse with water several times to remove TCA, serum proteins, etc. Plates are air dried and stored until use. Bland background optical density is measured in wells incubated with growth medium without cells. • 11. Use 10% acetic acid solution to prepare 0.4% Sulforhodamine B solution. Add 50 μl sulforhodamine B solution to each well of 96-well plates. • 12. […]

SMILES	IC50 [2] [nM]	IC50 [1] [nM]
CCN(CC)CCN1CCc2[nH]c(/C=C3\C(=O)Nc4cc(N)c(F)cc43)c(C)c2C1=O [Example 7, 2-(6-Amino-5-fluoro-2-oxo-1,2-dihydro-indol-3-ylidenemethyl)-5-(2-diethylamino-ethyl)-3-methyl-1,5,6,7-tetrahydro-pyrrolo[3,2-c]pyridin-4-one]	10500	1380
CCN(CC)CCN1CCc2[nH]c(/C=C3\C(=O)Nc4cc(NC=O)c(F)cc43)c(C)c2C1=O [Example 8, N-{3-[5-(2-Diethylamino-ethyl)-3-methyl-4-oxo-4,5,6,7-tetrahydro-1H-pyrrolo[3,2-c]pyridine-2-ylmethylene]-5-fluoro-2-oxo-2,3-dihydro-1,1-indol-6-yl}-formamide]	370	3140
CCN(CC)CCN1CCc2[nH]c(/C=C3\C(=O)Nc4cc(NC(C)=O)c(F)cc43)c(C)c2C1=O [Example 9, N-{3-[5-(2-Diethylamino-ethyl)-3-methyl-4-oxo-4,5,6,7-tetrahydro-pyrrolo[3,2-c]pyridine-2-ylmethylene]-5-fluoro-2-oxo-2,3-dihydro-1H-indol-6-yl}-acetamide]	9290	5800

Second part, led by results:

IC50 [2] [nM]	SMILES	IC50 [1] [nM]
10700	Cc1c(/C=C2\C(=O)Nc3cc(N)c(F)cc32)[nH]c2c1C(=O)N(CCN1CCCC1)CC2 [Example 14, 2-(6-Amino-5-fluoro-2-oxo-1,2-dihydro-indol-3-ylidenemethyl)-3-methyl-5-(2-pyrrolidin-1-yl-ethyl)-1,5,6,7-tetrahydro-pyrrolo[3,2-c]pyridin-4-one]	1050
840	CCN(CC)CCN1CCc2[nH]c(/C=C3\C(=O)Nc4ccc(NC=O)cc43)c(C)c2C1=O [Example 33, N-{3-[5-(2-Diethylamino-ethyl)-3-methyl-4-oxo-4,5,6,7-tetrahydro-1H-pyrrolo[3,2-c]pyridine-2-ylmethylene]-2-oxo-2,3-dihydro-1H-indol-5-yl}-formamide]	670
3890	CCN(CC)CCN1CCc2[nH]c(/C=C3\C(=O)Nc4ccc(-c5ccc(OC)cc5)cc43)c(C)c2C1=O [Example 38, 5-(2-Diethylamino-ethyl)-2-[5-(4-methoxy-phenyl)-2-oxo-1,2-dihydro-indol-3-ylidenemethyl)-3-methyl-1,5,6,7-tetrahydro-pyrrolo[3,2-c]pyridin-4-one]	1280
